Converted amounts (≈) assume the structure as drawn. *1 amine or outer side, *2 acyl side, *3 side chain or, on linkers, in order; H or OH if unused. Where a SMILES comes first, the peptide text is derived from it. Bridges are numbered along the chain shown (N, C = ends). [ ]: non-standard residue; d: D form. The star is where a group is joined. TBMB = c1c(C[*:1])cc(C[*:3])cc1C[*:2]; NHDecyl = CCCCCCCCCCN*
Experiments:
[1] = system: C15-P (farnesyl-phosphate); test: Antagonization assay with C15-P (negative control); format: cell-based; set-up: key: +: antagonization of antibiotic activity; -: no antagonization of antibiotic activity; conditions: Supplemental table S10, peptide at 4x MIC, 4 molar equivalents, M. luteus, 16 h at 30°C, growth observed visually
Method: (§1) Section 4 Biological and biochemical experiments
(§2) 4.1 Minimum inhibitory concentration assay
(§3) MIC values were determined by using the broth microdilution method. Peptides were dissolved first in DMSO and diluted with broth so that the final peptide concentration was 1024 µg/ml and the DMSO concentration was 4%. Peptide serial dilutions were made in TSB in a polypropylene 96-wells plate using 50 µl volumes. An overnight culture of the organism of interest was diluted to and OD600 of 0.01 and grown until they reach 0.5. The culture was then diluted to 1 x 10^6 CFU/ml and 50 µl of this suspension was added to each well. The highest concentrations were then 512 µg/ml peptide and 2% DMSO. The plates were incubated at the preferred growth temperature of the organism that was used and 250 rpm. […] When […]
(§4) determining the MICs of the lipidated peptides, the lipopeptides were first dissolved in DMSO and diluted with TSB so that the peptide concentration was 128 µg/ml and the DMSO concentration was 4%. After inoculation the highest peptide concentration evaluated was 64 µg/ml and the DMSO concentration was 2%. A DMSO control was tested for each strain to ensure the DMSO did not affect the growth of the particular strain. […]
(§5) 4.4 Antagonization assays
(§6) Stock solutions of each peptide antibiotic were prepared so that their final concentration in the assay would be 4x MIC. Peptides were transferred to a 96 wells plate and lipid II or C15-P (farnesyl-phosphate) was added at 4 molar equivalents in a final volume of 50 µl. Each well received 50 µl of bacterial suspension (M. luteus) at 1 x 10^6 CFU/ml and the plates were incubated for 16 h at 250 rpm and 30°C. Growth was observed visually (see supplemental table S10 for results).
Supplemental table S10. Lipid II antagonization assay results
Result with indicated antagonista
Antibiotic compound Lipid II C55-PP C15-Pb […]
a + = antagonization of antibiotic activity; - = no antagonization of antibiotic activity; b C -P was used as a negative […]
control (C15-P is a watersoluble analogue of the lipid II precursor undecaprenol phosphate).
4.6 Scanning Electron Microscopy
E. faecium E155 was inoculated at an OD600nm of 0.05 into 300 µL of cation adjusted TSB containing P8-D-(S6R, R15A)-C10 or nisin at (both a 2x MIC) along with 1% glucose and 1%
DMSO. An untreated culture was used as control. Following overnight incubation (ca. 16 hr) bacterial cells were fixed for 15 minutes with 1% (v/v) glutaraldehyde in phosphate buffered saline (PBS) at room temperature on poly-L-lysine covered glass slides (12 mm diameter). […]

[2] = system: C55-PP; test: Antagonization assay with C55-PP; format: cell-based, M. luteus; set-up: key to Result with antagonist C55-PP: +: antagonization of antibiotic activity; -: no antagonization of antibiotic activity; conditions: for Result with antagonist C55-PP: Supplemental table S10, peptide at 4x MIC, M. luteus, 16 h at 30°C, growth observed visually; for Effect of adding C55-PP on antibiotic activity: antagonization experiment using C55-PP
Method: To assess the role of lipid II in the mode of action of the lipopeptides a lipid II antagonization assay was employed.[18],[33] This assay was performed by premixing P8-D-C10 or the optimized P8-D-(S6R, R15A)-C10 with an excess of lipid II prior to addition of a live culture of M. luteus. […] To probe the stereochemical aspects of lipid II recognition by the optimized P8-D-(S6R, R15A)-C10 lipopeptide we also prepared and tested the corresponding enantiomeric L-peptide species P8-L-(S6R, R15A)-C10. […] Given that lipid II is a chiral biomolecule we had expected the enantiomeric lipopeptides to have different activities based on the assumption that they would interact differently with lipid II. To further investigate this phenomenon we employed the same lipid II antagonization assay described above. […] To explain this observation we hypothesize that the two enantiomeric peptides interact primarily with the pyrophosphate moiety of lipid II and are therefore less influenced by the chiral elements present elsewhere in the lipid II molecule. The pyrophosphate group is known to be a binding site for many natural occurring lipid II binding peptides.[15],[16] […] To test the hypothesis that both the P8-D-(S6R, R15A)-C10 and P8-L-(S6R, R15A)-C10 lipopeptides interact with the pyrophosphate moiety we performed an additional antagonizaiton experiment using C55-PP.
as §1, §2, §3, §4, §5, §6

[3] = system: M. luteus (NCTC2665); test: microbe, parasite or virus in culture; format: cell-based, Micrococcus luteus
Summary of the method: (§7)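 Dilution series of peptide in TSB, up to 512 µg/ml final (lipopeptides up to 64 µg/ml), DMSO 2% final. Mid-log inoculum suspension at 1 x 10^6 CFU/ml, equal volume per well. Incubation at the strain's growth temperature with shaking.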

[4] = system: E. faecium (E980); test: microbe, parasite or virus in culture; format: cell-based, Enterococcus faecium
Summary of the method: as §7

[5] = system: E. faecium (VRE155); test: microbe, parasite or virus in culture; format: cell-based, Enterococcus faecium
Summary of the method: as §7

[6] = system: E. faecium (VRE0321); test: microbe, parasite or virus in culture; format: cell-based, Enterococcus faecium
Summary of the method: as §7

[7] = system: E. faecium (VRE7391); test: microbe, parasite or virus in culture; format: cell-based, Enterococcus faecium
Summary of the method: as §7

[8] = system: E. faecium (VRE2297); test: microbe, parasite or virus in culture; format: cell-based, Enterococcus faecium
Summary of the method: as §7

[9] = Supplemental table S9, MIC values of Table 2 expressed in µM
[10] = Table 2, broth microdilution in TSB, 16 h, read visually, highest tested 64 µg/ml, 2% DMSO
[11] = Table 2, broth microdilution in TSB, 16 h, read visually, highest tested 64 µg/ml
[12] = Supplemental table S9, vancomycin-resistant isolate, MIC values of Table 2 expressed in µM
[13] = Table 2, vancomycin-resistant isolate from hospitalized patients, broth microdilution in TSB, 16 h, highest tested 64 µg/ml

| Compound | Result with antagonist C15-P [1] | Result with antagonist C55-PP [2] | Effect of adding C55-PP on antibiotic activity [2] | MIC M. luteus (NCTC2665) [3, 9] [µM] | MIC M. luteus (NCTC2665) [3, 10] [μg mL^–1] | MIC E. faecium (E980) [4, 9] [µM] | MIC E. faecium (E980) [4, 11] [μg mL^–1] | MIC E. faecium (VRE155) [5, 12] [µM] | MIC E. faecium (VRE155) [5, 13] [μg mL^–1] | MIC E. faecium (VRE0321) [6, 12] [µM] | MIC E. faecium (VRE0321) [6, 13] [μg mL^–1] | MIC E. faecium (VRE7391) [7, 12] [µM] | MIC E. faecium (VRE7391) [7, 13] [μg mL^–1] | MIC E. faecium (VRE2297) [8, 12] [µM] | MIC E. faecium (VRE2297) [8, 13] [μg mL^–1] |
| --- | --- | --- | --- | --- | --- | --- | --- | --- | --- | --- | --- | --- | --- | --- | --- |
| CCCCCCCCCCNC(=O)CNC(=O)[C@@H]1CSCc2cc3cc(c2)CSC[C@H](NC(=O)[C@H](CC(C)C)NC(=O)[C@H](CC(C)C)NC(=O)[C@H](CCCNC(=N)N)NC(=O)[C@H](CCC(N)=O)NC(=O)[C@H](CC(C)C)NC(=O)[C@H](CC(C)C)NC(=O)[C@@H](NC(=O)[C@H](C)N)CSC3)C(=O)N2CCC[C@H]2C(=O)N[C@@H](Cc2ccc(O)cc2)C(=O)N[C@@H](CO)C(=O)N[C@@H]([C@@H](C)O)C(=O)N[C@@H](Cc2c[nH]cn2)C(=O)N[C@@H](C)C(=O)N1 [P8-L-(S6R, R15A)-C10] (H-ACLLQRLLCPYSTHACG-NHDecyl; linker 2-9-16 via TBMB; N-terminus assumed) | - | + | complete loss of antibiotic activity | 3.8 (≈ 7.99 µg/mL) | 4 | 30.5 (≈ 64.1 µg/mL) | 32 | 7.6 (≈ 16 µg/mL) | 8 | 7.6 (≈ 16 µg/mL) | 8 | 15.2 (≈ 32 µg/mL) | 16 | 15.2 (≈ 32 µg/mL) | 16 |
| CCCCCCCCCCNC(=O)CNC(=O)[C@H]1CSCc2cc3cc(c2)CSC[C@@H](NC(=O)[C@@H](CC(C)C)NC(=O)[C@@H](CC(C)C)NC(=O)[C@@H](CCCNC(=N)N)NC(=O)[C@@H](CCC(N)=O)NC(=O)[C@@H](CC(C)C)NC(=O)[C@@H](CC(C)C)NC(=O)[C@H](NC(=O)[C@@H](C)N)CSC3)C(=O)N2CCC[C@@H]2C(=O)N[C@H](Cc2ccc(O)cc2)C(=O)N[C@H](CO)C(=O)N[C@H]([C@H](C)O)C(=O)N[C@H](Cc2c[nH]cn2)C(=O)N[C@H](C)C(=O)N1 [P8-D-(S6R, R15A)-C10] (H-[dA][dC][dL][dL][dQ][dR][dL][dL][dC][dP][dY][dS][dT][dH][dA][dC]G-NHDecyl; linker 2-9-16 via TBMB; N-terminus assumed) | - | + | complete loss of antibiotic activity | 3.8 (≈ 7.99 µg/mL) | 4 | 30.5 (≈ 64.1 µg/mL) | 32 | 7.6 (≈ 16 µg/mL) | 8 | 7.6 (≈ 16 µg/mL) | 8 | 15.2 (≈ 32 µg/mL) | 16 | 15.2 (≈ 32 µg/mL) | 16 |
